Measurements: US12161694B2, “Methods and compositions for regulating innate lymphoid cell inflammatory responses” (The Broad Institute, Inc., priority 2017, dated 2024)
Entries after “also recorded” stand apart in the source; their conditions may differ. Where no end group is shown, it is not given here.

System: lung-resident ILCs
Assay: Droplet-based scRNA-seq of lung-resident ILCs after in vivo treatment
Parameters: species or system mouse
Settings: PBS, NMU, IL-25, combination
Text: Mice and in vivo ILC activation. C57Bl/6J mice were purchased from the Jackson Laboratory. Nmur1-LacZ reporter mice with a LacZ cassette knocked into the Nmur1 locus were rederived from Nmur1^tm1.1(KOMP)Vleg sperm obtained from the trans-NIH Knock-Out Mouse Project (KOMP) Repository. Mice were housed under specific-pathogen-free conditions. For experiments, mice were matched for sex and age, and most mice were 6-10 weeks old. Where indicated, mice were anesthetized with Isoflurane and treated intranasally with the indicated stimuli (500 ng IL-25, 500 ng IL-33, or 20 μg Neuromedin U) daily for three consecutive days. The total administered volume was 20 μl for all conditions. Mice were randomly assigned to treatment groups after matching for sex and age. […]
Fluorescence-activated cell sorting of innate lymphoid cells. […]
Analysis of droplet-based scRNA-Seq data: Initial QC. Gene counts were obtained by aligning reads to the mm10 genome using CellRanger software (10× Genomics), with the genome reannotated at the 3′ end of Nmur1 (see main text). […]
Analysis of droplet-based scRNA-Seq samples: Signature scores. Applicants calculated signature scores as the log of the geometric mean of the TPX values for the genes in the signature. […] Then the signature score for that cell is calculated as log(IIg(xg+1)^1/m) which is equivalent to the arithmetic mean of the log TPX values. […]

Substance: Neuromedin U (FRVDEEFQSPFASQSRGYFLFRPRN-NH2; listed as Homo sapiens) [NMU, neuropeptide ligand of Nmur1 (US Biological)]
- transcriptional profiles of ILCs (tSNE localization): largely localized with those from control mice; also recorded: transcriptionally similar to control ILCs
